Legend:
mice [1] = assay: Formalin-evoked pain behavior (hind paw licking); format: in vivo, mouse; details: for effect of CB2 antagonist on antinociceptive effect of GW7647: GW7647 50 μg i.pl.; for effect of CB2 antagonist on antinociceptive effect of GW7647 / effect of CB2 antagonist on antinociceptive effect of PEA: AM630 2 mg-kg^−1 i.p.; for effect of CB2 antagonist on antinociceptive effect of PEA: PEA 50 μg i.pl.; for phase I and II formalin pain in wild-type mice: wild-type C57BL6 mice
Method: Administration of formalin into the mouse hind paw evokes a pain behavior consisting of two temporally distinct phases of licking and flexing of the injected limb (Dubuisson, et al., Pain 4, 161-74 (1977)). The first phase, which starts immediately after formalin injection and lasts 5-10 min, is due to activation of nociceptive fibers and is accompanied by the local release of nitric oxide and adenosine [Dickenson, et al., Neurosci Lett 83, 207-11 (1987); Omote, et al., Brain Res 787, 161-4 (1998); Omote et al., 2000; Liu, et al., J Neurochem 80, 562-70 (2002)]. Following a quiescent interval of 10-15 minutes, a second phase of nociceptive behavior appears, which is associated with local inflammation [Rosland, et al., Pain 42, 235-42 (1990)] and central sensitization [Coderre, et al., J Neurosci 12, 3665-70 (1992)]. […] (2001); Farquuar-Smith, 2002]. […] The effects of PEA in C57BL/6J mice in which the PPARα gene had been deleted by homologous recombination (PPARα^−/−)[Lee, et al., Mol Cell Biol 15, 3012-22 (1995)] were examined to determine whether PPARα contributes to these properties.
Although PPARα is known to regulate the inflammatory response [Devchand, et al., Nature 384, 39-43. (1996); Cabrero, et al., Curr Drug Targets Inflamm Allergy 1, 243-8 (2002); Berger, et al., Annu Rev Med 53, 409-35 (2002); Chinetti, et al., Inflamm Res 49, 497-505 (2000)], its roles in the modulation of acute nociceptive pain remain unexplored. A series of structurally diverse PPAR-α agonists were tested for their ability to reduce pain behavior in an animal model of chemical tissue damage. Injection of formalin into the mouse hind paw evokes a nocifensive behavior consisting of two distinct phases. The first phase results from direct activation of nociceptive fibers and starts immediately after formalin administration, while the second phase develops over a period of approximately 60 min and is associated with local inflammation and central sensitization.
Mice received intraplantar injections of formalin (5% vol/vol, 10 μl) in saline containing polyethylene glycol (5%) and Tween 80 (5%). The duration of paw licking was monitored by an observer for periods of 0-15 min (early or first phase) and 15-45 min (late or second phase) immediately after formalin administration.
Formalin test. Formalin (5%, 10 μl)-induced paw licking was monitored for 0-15 min (first phase) and 15-45 min (second phase) as described (Calignano, et al., Nature 394, 277-81 (1998).

mice [2] = assay: TPA-induced ear edema (irritant contact dermatitis); format: in vivo, mouse; details: topical co-application, CD1 mice
From the text: (§1) In addition to rapid-onset analgesia, PEA also exerts prolonged anti-inflammatory effects [Benvenuti, et al., Boll Soc It Biol Sper 44, 809-813 (1968); Lambert, et al., Curr Med. Chem. 9, 663-74 (2002)], which are associated with the down-regulation of pro-inflammatory proteins such as nitric oxide synthase (NOS) [Costa, et al., Br J Pharmacol 137, 413-20. (2002)]. Two models of acute inflammation were used to examine whether such effects are mediated through PPARα. First, paw edema was induced in C57B16J wild-type and PPARα^−/− mice by local injection of the irritant, carrageenan [Cirino, et al., Eur J Pharmacol 166, 505-10 (1989)]. […] Next, ear edema was produced in CD1 mice by topical administration of the phorbol ester, 12-O-tetradecanoylphorbol-13-acetate (TPA) [Sheu, et al., J Invest Dermatol., 94-101. (2002)]. […] In a parallel set of experiments, the effects of PEA (20 μg) on TPA-induced edema were tested in C57B16J wild-type and PPARα^−/− mice. […] Together, these findings indicate that PEA reduces acute nociception and inflammation through activation of PPARα.
As previous described procedure [Sheu, et al., J Invest Dermatol., 94-101. (2002)], 12-O-tetradecanoylphorbol-13-acetate (TPA) was dissolved in acetone (0.03%, w v^−1) and topically delivered with a pipette to the inner and outer surfaces (10 μl/side) of mice ears. Experimental agents were dissolved in acetone and delivered topically (20 μl/side) 45 minutes and 4 hours after TPA. 18 hours after TPA administration, the mice were euthanized with CO2 and the ears punched (diameter=2 mm) four times. The 4 excised punches of skin were combined and weighed to assess edema.

mice [3] = assay: Carrageenan-evoked paw edema (acute); format: in vivo, mouse; details: wild-type C57Bl6J; PEA 10 mg-kg^−1 i.p., WY-14643 20 mg-kg^−1 i.p.
From the text: as §1
An inflammatory response was initiated by injecting 2% (w v^−1, 20 μl) λ-carrageenan in sterile saline into mice hind paws using a 27-gauge needle. Drugs were administered 30 minutes before carrageenan (i.p.). Paw edema was measured using a plethysmometer (Ugo Basile, Italy).

mice [4] = assay: Magnesium sulfate-evoked writhing test; format: in vivo, mouse; details: subcutaneous, Swiss mice
Method: Mice received a single dose of magnesium sulfate (120 mg/kg, dissolved in 0.5 ml saline, i.p.) and subsequent writhing episodes were monitored for a period of 30 min thereafter. Drugs were administered in saline/Tween 80/polyethylenglycol, (90/5/5) subcutaneously, 30 minutes before magnesium sulfate.
Next, the effect of PPARα agonists on the nocifensive behavior elicited by intraperitoneal injection of magnesium sulfate in mice, a model of visceral pain (Calignano, et al, Eur J Pharmacol 419, 191-8. (2001)), was explored.
Writhing test. Magnesium sulfate was injected (120 mg-kg^−1 in 0.5 ml saline, i.p.) in 12-h food-deprived mice and measured writhing episodes for 30 min (Calignano, et al, Eur J Pharmacol 419, 191-8. (2001)). Drugs or vehicle were administered by subcutaneous injection 30 min before magnesium sulfate.

human CB2 = biological target: T1, human CB2 (Homo sapiens, UniProt P34972); assay: CB2 receptor binding, [3H]-WIN-55212-2 displacement in CB2-overexpressing CHO cell membranes
T1 construct: purchased Perkin-Elmer, Boston, Mass; host or cells: CHO cells (membranes)

Swiss mice = assay: Sciatic nerve ligation neuropathy, mechanical and thermal hyperalgesia; format: in vivo, mouse
Method: To examine whether PPARα agonists modulate the persistent pain hypersensitivity associated with nerve injury, peripheral neuropathy was produced in mice by partially ligating the left sciatic nerve, a surgical procedure that results in the development of mechanical and thermal hyperalgesia in the operated limb (Bennett et al., Pain, 33, 87 (1988)).
Sciatic nerve ligation was performed essentially following the method of Bennett and Xie (Bennett et al., Pain 33, 87 (1988)). Briefly, male Swiss mice were anesthetized with sodium pentobarbital, the left sciatic nerve was exposed at mid-thigh level through a small incision and one-third to one-half of the nerve thickness was tightly ligated with a silk thread. The wound was closed with a single muscle suture and skin clips, and dusted with streptomycin powder. In sham-operated animals, the nerve was exposed but not ligated.
Mechanical hyperalgesia was determined by measuring paw withdrawal thresholds to an increasing pressure onto the dorsal surface of the paw using an analgesimeter (Ugo Basile, Italy) with a cut-off of 250 g. Withdrawal thresholds were measured on both the ipsilateral paw (inflamed or ligated) and contralateral paw (uninflamed or unligated) 60 min after subcutaneous drug administration.
Thermal hyperalgesia was assessed by the methods of Hargreaves (Hargreaves et al., Pain, 32, 77 (1988)) by measuring the latency to withdraw the hind paws from a focussed beam of radiant heat applied to the plantar surface, using an appropriate apparatus (Ugo Basile, Italy). The cut-off time was set at 30 sec. The mice were habituated to the apparatus for 10-15 min two days prior to the experiment.

human PPARα = biological target: T2, human PPARα (Homo sapiens, UniProt Q07869); assay: PPARα transactivation assay (HeLa cells, luciferase reporter); format: cell-based
T2 construct: expressed in transfected cells
T2 sequence (Q07869 239-466 limits assumed): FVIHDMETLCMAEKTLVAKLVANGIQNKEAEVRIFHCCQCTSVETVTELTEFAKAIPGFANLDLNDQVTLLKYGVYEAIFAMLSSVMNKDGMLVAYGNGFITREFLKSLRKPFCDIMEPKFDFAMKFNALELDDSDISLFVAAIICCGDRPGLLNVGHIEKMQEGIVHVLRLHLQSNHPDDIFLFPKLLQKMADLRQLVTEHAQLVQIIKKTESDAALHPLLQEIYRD
Method: Transactivation assays were performed as previously described [Fu et al., Nature 425:90-93 (2003)].
PPAR-α transactivation. Plasmids were generated which contained the ligand-binding domain of human PPAR-α (nucleotides 499-1,407) fused to the DNA-binding domain of yeast GAL4 under control of the human cytomegalovirus promoter and to a neomycin resistance gene to provide stable selection with 0.2 mg-ml-1 G418 (Calbiochem). We cultured HeLa cells in Dulbecco's-modified Eagles's medium (DMEM) supplemented with fetal bovine serum (10%), transfected them with Fugene 6 ([…], Roche) containing the pFR-luc plasmid ([…], Stratagene) and, 18 h later, replaced the media with DMEM containing hygromycin (0.1 mg ml−1, Calbiochem). […] Cells were maintained in DMEM containing hygromycin and G418. For transactivation assays, we seeded cells in 6-well plates and incubated them for 7 h in DMEM containing hygromycin and G418, plus appropriate concentrations of test compounds. We used a dual-luciferase reporter assay system (Promega) and an MLX Microtiter® plate luminometer (Dynex) to determine luciferase activity in cell lysates.

[5] = formalin, Swiss mice, SR144528 1 mg-kg^−1

T1 sequence (P34972 whole entry): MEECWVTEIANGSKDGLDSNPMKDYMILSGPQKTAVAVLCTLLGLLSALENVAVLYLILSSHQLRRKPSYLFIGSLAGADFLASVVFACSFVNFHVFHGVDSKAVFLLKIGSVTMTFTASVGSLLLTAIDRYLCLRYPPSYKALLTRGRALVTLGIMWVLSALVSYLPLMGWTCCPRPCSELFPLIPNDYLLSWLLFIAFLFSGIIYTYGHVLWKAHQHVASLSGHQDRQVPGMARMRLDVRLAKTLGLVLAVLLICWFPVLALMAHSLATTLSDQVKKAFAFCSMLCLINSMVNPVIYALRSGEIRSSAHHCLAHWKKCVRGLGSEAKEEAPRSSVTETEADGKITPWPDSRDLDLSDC

With `CCCCC/C=C\C/C=C\C/C=C\C/C=C\CCCC(=O)N[C@H](C)CO` [(R)-methanandamide] the “formalin pain in PPARα−/− mice” value (mice [1]; PPARα−/− mice, 50 μg i.pl.) was “reversed”.
In the case of `COc1ccc(C(=O)c2c(C)n(CCN3CCOCC3)c3cc(I)ccc23)cc1` [AM630], the “effect of CB2 antagonist on antinociceptive effect of GW7647” value (mice [1]; [5]) is reported as “did not affect” and the “effect of CB2 antagonist on antinociceptive effect of PEA” value (mice [1]; [5]) is reported as “did not affect”.
`Cc1cc(SCc2sc(-c3ccc(C(F)(F)F)cc3)nc2C)ccc1OCC(=O)O` [GW501516] was tested, and the “phase I and II formalin pain in wild-type mice” value (mice [1]; 50 μg i.pl.) was “inactive”.
`Cc1c(C(=O)NN2CCCCC2)nn(-c2ccc(Cl)cc2Cl)c1-c1ccc(Cl)cc1` [SR141716] was tested, and the “effect on antinociception by anandamide plus PEA or GW7647” value (mice [1]; SR141716 0.1 mg kg^−1 i.v., 10 min before formalin, agonists 0.1 μg/paw each) was “prevents”.
In the case of `Cc1cccc(Nc2cc(Cl)nc(SCC(=O)O)n2)c1C` [Wy-14643, [4-chloro-6-(2,3-xylidino)-2-pyrimidinylthio]acetic acid], the “TPA-induced ear edema formation” value (mice [2]) is reported as “attenuated”, the “first- and second-phase nociception” value (mice [1]; Swiss mice, i.pl. together with formalin, GW7647 0.1-50 μg, Wy-14643 50-200 μg, fenofibric acid 100-400 μg) is reported as “attenuated first- and second-phase nociception in a dose-dependent manner” and the “average half-maximal effective dose (ED50) to reduce first-phase pain” value (mice [1]; intraplantar with formalin, Swiss mice, ten experiments) is reported as 97.0 µg. The “carrageenan paw edema in wild-type mice” value (mice [3]) was “decreased edema”, the “average ED50, magnesium sulfate-evoked writhing” value (mice [4]; n=8) was 25 mg/kg and the “number of writhing episodes evoked by magnesium sulfate” value (mice [4]; GW7647 1-30, Wy-14643 4-80, PEA 1-20 mg-kg^−1) was “dose-dependently decreased the number of writhing episodes”. The “[^3H]-WIN-55212-2 Binding (% of control)” value (human CB2; Concentration 1 μM) was 104.2 ± 3.6 % of control and the “[^3H]-WIN-55212-2 Binding (% of control)” value (human CB2; Concentration 10 μM) was 105.6 ± 1.5 % of control.
In the case of `CC1(COc2ccc(CC3SC(=O)NC3=O)cc2)CCCCC1` (stereo not drawn) [ciglitazone], the “phase I and II formalin pain in wild-type mice” value (mice [1]; 50 μg i.pl.) is reported as “inactive”.
In the case of `NCC1(CC(=O)O)CCCCC1` [gabapentin], the “mechanical and thermal pain thresholds in the non-ligated paw of neuropathic mice” value (Swiss mice; data not shown) is reported as “did not affect” and the “neuropathic hypersensitivity (mechanical and thermal pain thresholds), ligated limb” value (Swiss mice; single s.c. dose day 7 and 14 after surgery, 60 min before test, PEA, GW7647 30 mg-kg^−1, gabapentin 60 mg-kg^−1) is reported as “comparable in magnitude”.
In the case of `CCCCCCCCCCCCCCCC(=O)O` [palmitic acid], the “PPARα activation” value (human PPARα; HeLa cells, identical conditions) is reported as “no effect”.
For SR144528, the “antagonism of PEA-induced PPARα activation in vitro” value (human PPARα; PEA 10 μM, SR144528 0-5 μM) was “did not significantly antagonize”, the “effect of CB2 antagonist on antinociceptive effect of GW7647” value (mice [1]; [5]) was “reverse” and the “effect of CB2 antagonist on antinociceptive effect of PEA” value (mice [1]; [5]) was “blocked”. The “effect of CB2 antagonist on antinociceptive effect of Wy-14643” value (mice [1]; formalin, Swiss mice, Wy-14643 100 μg i.pl., SR144528 1 mg-kg^−1) was “reverse”.

From US20080103209A1, “Compounds And Methods For Treating Non-Inflammatory Pain Using Ppar Alpha Agonists” (The Regents of The University of California, priority 2004, published 2008)
